# In PubChem BioAssay AID180 (DTP/NCI, 2004):
# “And” between values parts separate entries of the source, which are not always exact repeats. Equal entries are not always repeated.
# Tested on: BDF1 mice, Adenocarcinoma 755 s.c., tumor weight T/C
# Experiment: NCI In Vivo Anticancer Drug Screen. Data for tumor model Adenocarcinoma 755 (subcutaneous) in B6D2F1 (BDF1) mice
# Details: endpoint: mean tumor weight, schedule: Q01DX011 (ip), higher = larger tumour
# How it was run: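 Values express treated (T) relative to vehicle-dosed control (C) animals, based on survival or tumour size measured after compound treatment of mice bearing a transplanted tumour.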
# [1] = dose: 0.5 mg/kg/injection, vehicle: carboxymethylcellulose (CMC)
# [2] = dose: 1.0 mg/kg/injection, vehicle: carboxymethylcellulose (CMC)
# [3] = dose: 125.0 mg/kg/injection, vehicle: carboxymethylcellulose (CMC)
smiles,measurement,setting,value
O=C1C=C(N2CC2)C(=O)C(N2CC2)=C1N1CC1,T/C,"dose: 0.02 mg/kg/injection, vehicle: saline",79 % of control
same,T/C,"dose: 0.05 mg/kg/injection, vehicle: saline",61 % of control
same,T/C,"dose: 0.1 mg/kg/injection, vehicle: saline",19 % of control
same,T/C,"dose: 3.0 micrograms/kg/injection, vehicle: carboxymethylcellulose (CMC)",42 % of control
same,T/C,"dose: 5.0 micrograms/kg/injection, vehicle: carboxymethylcellulose (CMC)",25 % of control
same,T/C,"dose: 5.0 micrograms/kg/injection, vehicle: saline",65 % of control
same,T/C,"dose: 10.0 micrograms/kg/injection, vehicle: carboxymethylcellulose (CMC)",39 % of control
same,T/C,"dose: 10.0 micrograms/kg/injection, vehicle: saline",54 % of control
same,T/C,"dose: 20.0 micrograms/kg/injection, vehicle: carboxymethylcellulose (CMC)",8 % of control
same,T/C,"dose: 20.0 micrograms/kg/injection, vehicle: saline",59 % of control
same,T/C,"dose: 25.0 micrograms/kg/injection, vehicle: carboxymethylcellulose (CMC)",70 % of control
same,T/C,"dose: 31.0 micrograms/kg/injection, vehicle: carboxymethylcellulose (CMC)",100 % of control
same,T/C,"dose: 40.0 micrograms/kg/injection, vehicle: saline",33 % of control
same,T/C,"dose: 62.0 micrograms/kg/injection, vehicle: carboxymethylcellulose (CMC)",69 % of control
same,T/C,"dose: 125.0 micrograms/kg/injection, vehicle: carboxymethylcellulose (CMC)",63 % of control
O=[N+]([O-])c1ccc(-n2cnc3c(=S)nc[nH]c32)o1,T/C,"dose: 0.2 mg/kg/injection, vehicle: carboxymethylcellulose (CMC)",105 % of control
same,T/C,"dose: 0.4 mg/kg/injection, vehicle: carboxymethylcellulose (CMC)",92 % of control
same,T/C,"dose: 0.8 mg/kg/injection, vehicle: carboxymethylcellulose (CMC)",86 % of control
same,T/C,"dose: 1.6 mg/kg/injection, vehicle: carboxymethylcellulose (CMC)",29 % of control and 44 % of control
same,T/C,"dose: 3.2 mg/kg/injection, vehicle: carboxymethylcellulose (CMC)",32 % of control
same,T/C,"dose: 6.3 mg/kg/injection, vehicle: carboxymethylcellulose (CMC)",1 % of control
O=C(O)CC(Nc1ncnc2nc[nH]c12)C(=O)O (stereo not drawn),T/C,"dose: 12.0 mg/kg/injection, vehicle: methylcellulose (MC)",105 % of control
same,T/C,"dose: 25.0 mg/kg/injection, vehicle: methylcellulose (MC)",98 % of control
same,T/C,"dose: 50.0 mg/kg/injection, vehicle: methylcellulose (MC)",103 % of control
same,T/C,"dose: 100.0 mg/kg/injection, vehicle: methylcellulose (MC)",45 % of control
O=C(NCCCCCCCCCCNC(=O)N1CC1)N1CC1,T/C,[1],57 % of control and 66 % of control
same,T/C,[2],2 % of control and 20 % of control
CC1CC(C)C(=O)C(C(=O)CC2CC(=O)NC(=O)C2)C1 (stereo not drawn),T/C,[3],67 % of control
Cn1cnc2c(ncn2C2CC(O)C(CO)O2)c1=N (stereo not drawn),T/C,"dose: 30.0 mg/kg/injection, vehicle: saline",83 % of control
same,T/C,"dose: 60.0 mg/kg/injection, vehicle: saline",100 % of control
same,T/C,"dose: 120.0 mg/kg/injection, vehicle: saline",80 % of control
same,T/C,"dose: 240.0 mg/kg/injection, vehicle: saline",108 % of control
Nc1nc(SCc2cccnc2)c2ncn(C3OC(CO)C(O)C3O)c2n1 (stereo not drawn),T/C,"dose: 1.5 mg/kg/injection, vehicle: methylcellulose (MC)",92 % of control
same,T/C,"dose: 3.1 mg/kg/injection, vehicle: methylcellulose (MC)",87 % of control
same,T/C,"dose: 6.2 mg/kg/injection, vehicle: methylcellulose (MC)",12 % of control and 15 % of control
CC(=O)OCC1OC(n2cnc3c(Cl)nc(Cl)nc32)C(OC(C)=O)C1OC(C)=O (stereo not drawn),T/C,"dose: 30.0 mg/kg/injection, vehicle: carboxymethylcellulose (CMC)",85 % of control
same,T/C,"dose: 60.0 mg/kg/injection, vehicle: carboxymethylcellulose (CMC)",92 % of control
same,T/C,"dose: 120.0 mg/kg/injection, vehicle: carboxymethylcellulose (CMC)",61 % of control
same,T/C,"dose: 240.0 mg/kg/injection, vehicle: carboxymethylcellulose (CMC)",61 % of control
CSc1nc(S(C)(=O)=O)ncc1C,T/C,"dose: 15.0 mg/kg/injection, vehicle: methylcellulose (MC)",86 % of control
same,T/C,"dose: 31.0 mg/kg/injection, vehicle: methylcellulose (MC)",94 % of control
same,T/C,"dose: 62.0 mg/kg/injection, vehicle: methylcellulose (MC)",154 % of control
O=C(O)CCCc1ccc(N(CCCl)CCCl)cc1,T/C,[1],93 % of control
same,T/C,[2],43 % of control
same,T/C,"dose: 1.25 mg/kg/injection, vehicle: methylcellulose (MC)",31 % of control
same,T/C,"dose: 1.81 mg/kg/injection, vehicle: carboxymethylcellulose (CMC)",60 % of control
same,T/C,"dose: 1.94 mg/kg/injection, vehicle: carboxymethylcellulose (CMC)",38 % of control
same,T/C,"dose: 2.0 mg/kg/injection, vehicle: saline",99 % of control
same,T/C,"dose: 2.5 mg/kg/injection, vehicle: methylcellulose (MC)",89 % of control
same,T/C,"dose: 3.63 mg/kg/injection, vehicle: carboxymethylcellulose (CMC)",34 % of control
same,T/C,"dose: 3.88 mg/kg/injection, vehicle: carboxymethylcellulose (CMC)",37 % of control
same,T/C,"dose: 4.0 mg/kg/injection, vehicle: saline",49 % of control
same,T/C,"dose: 5.0 mg/kg/injection, vehicle: methylcellulose (MC)",33 % of control
same,T/C,"dose: 5.8 mg/kg/injection, vehicle: carboxymethylcellulose (CMC)",41 % of control
same,T/C,"dose: 6.2 mg/kg/injection, vehicle: carboxymethylcellulose (CMC)",75 % of control
same,T/C,"dose: 6.25 mg/kg/injection, vehicle: methylcellulose (MC)",26 % of control
same,T/C,"dose: 7.25 mg/kg/injection, vehicle: carboxymethylcellulose (CMC)",30 % of control and 48 % of control
same,T/C,"dose: 7.75 mg/kg/injection, vehicle: carboxymethylcellulose (CMC)",16 % of control and 29 % of control
same,T/C,"dose: 8.0 mg/kg/injection, vehicle: saline",37 % of control
same,T/C,"dose: 9.66 mg/kg/injection, vehicle: carboxymethylcellulose (CMC)",9 % of control
same,T/C,"dose: 10.0 mg/kg/injection, vehicle: methylcellulose (MC)",10 % of control
same,T/C,"dose: 10.33 mg/kg/injection, vehicle: carboxymethylcellulose (CMC)",14 % of control
same,T/C,"dose: 12.5 mg/kg/injection, vehicle: methylcellulose (MC)",5 % of control
same,T/C,"dose: 14.5 mg/kg/injection, vehicle: carboxymethylcellulose (CMC)",2 % of control and 6 % of control
same,T/C,"dose: 15.5 mg/kg/injection, vehicle: carboxymethylcellulose (CMC)",4 % of control
same,T/C,"dose: 1812.0 micrograms/kg/injection, vehicle: carboxymethylcellulose (CMC)",118 % of control
same,T/C,"dose: 3625.0 micrograms/kg/injection, vehicle: carboxymethylcellulose (CMC)",58 % of control
same,T/C,"dose: 7250.0 micrograms/kg/injection, vehicle: carboxymethylcellulose (CMC)",59 % of control
O=C(CC[n+]1ccccc1)N1CCN(C(=O)CC[n+]2ccccc2)CC1,T/C,"dose: 1.0 mg/kg/injection, vehicle: methylcellulose (MC)",94 % of control
same,T/C,"dose: 3.0 mg/kg/injection, vehicle: methylcellulose (MC)",68 % of control
CC(CNC(=O)CCBr)CNC(=O)CCBr,T/C,"dose: 113.0 mg/kg/injection, vehicle: carboxymethylcellulose (CMC)",51 % of control
CCOC(=O)CCCc1ccc(N=NN(C)CC(C)C)cc1,T/C,[3],47 % of control
same,T/C,"dose: 250.0 mg/kg/injection, vehicle: carboxymethylcellulose (CMC)",28 % of control
